# Activity calls are given as the source filed them.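 How the source made its calls: active means decreasing luminescence curve with half-maximal concentration at most twice the top tested dose, in every replicate run; inconclusive means replicate test runs disagree in their calls; inactive means every replicate run inactive, including responses in the opposite direction.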
# Molecular target: Glycogen synthase kinase-3 beta (Homo sapiens) (UniProt P49841)
# Assay: GSK3beta inhibitors at high ATP, SAR follow-up, mechanism study for GSK3beta inhibitor project, biochemical, varied ATP levels, ADP-Glo luminescence, dry powder samples (AID 624027)
# Conditions: GST-GSK3beta kinase, 100 uM ATP
# Glycogen synthase kinase-3 beta (Homo sapiens), sequence (P49841 whole entry, looked up): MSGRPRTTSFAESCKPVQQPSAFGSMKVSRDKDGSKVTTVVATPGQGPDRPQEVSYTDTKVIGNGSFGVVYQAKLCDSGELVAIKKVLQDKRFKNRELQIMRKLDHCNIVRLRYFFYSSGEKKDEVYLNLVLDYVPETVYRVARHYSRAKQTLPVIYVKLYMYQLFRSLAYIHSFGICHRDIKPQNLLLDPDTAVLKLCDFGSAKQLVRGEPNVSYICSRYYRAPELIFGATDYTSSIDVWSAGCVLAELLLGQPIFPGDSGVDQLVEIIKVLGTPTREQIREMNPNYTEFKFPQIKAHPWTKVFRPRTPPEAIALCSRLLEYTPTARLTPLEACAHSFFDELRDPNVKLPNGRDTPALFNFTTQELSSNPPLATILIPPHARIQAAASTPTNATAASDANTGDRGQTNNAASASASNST
row,Compound,AC50 [µM]
1,Cc1[nH]nc2c1C(c1ccc(C#N)cc1)C1=C(CC(C)(C)CC1=O)N2 (centres undefined),39.8
2,CC1(C)CC(=O)C2=C(C1)Nc1n[nH]c(C(F)(F)F)c1C2(C)c1ccccc1 (centres undefined),0.041
3,Cc1[nH]nc2c1C(c1cccc3nonc13)C1=C(CC(C)(C)CC1=O)N2 (centres undefined),0.231
4,CC1(C)CC(=O)C2=C(C1)Nc1n[nH]c(C(F)(F)F)c1C2c1cc(F)ccc1C(F)(F)F (centres undefined),0.209
5,CC1(C)CC(=O)/C(=C\c2cccc(F)c2C(F)(F)F)C(=Nc2cc(C(F)(F)F)[nH]n2)C1,13.2
6,CC1(C)CC(=O)C2=C(C1)Nc1n[nH]c(C(F)(F)F)c1C2c1ccccc1F (centres undefined),0.932
7,Cc1[nH]nc2c1[C@H](c1ccccc1C(F)(F)F)C1=C(CC(C)(C)CC1=O)N2,31.9
8,COc1ccccc1[C@@H]1C2=C(CC(C)(C)CC2=O)Nc2n[nH]c(C(F)(F)F)c21,0.143
9,CC1(C)CC(=O)C2=C(C1)Nc1n[nH]c(C(F)(F)F)c1C2c1cc(F)ccc1OC(F)(F)F (centres undefined),2.34
10,CC1(C)CC(=O)/C(=C\c2ccccc2C(F)(F)F)C(=Nc2cc(C(F)(F)F)[nH]n2)C1,25.2
11,Cc1[nH]nc2c1[C@@H](c1ccccc1C(F)(F)F)C1=C(CC(C)(C)CC1=O)N2,0.231
12,CC1(C)CC(=O)C2=C(C1)Nc1n[nH]c(C(F)(F)F)c1C2c1ccccc1 (centres undefined),0.103

# Same assay, conditions: GST-GSK3beta kinase, 100 uM ATP, at 46 µM (top of the series)
row,Compound,"activity change, negative = inhibition"
1,CN(C)Cc1cn(-c2ccccc2)nc1-c1ccccc1,inactive
2,CNC(=O)c1cn(-c2ccccc2)nc1-c1ccc(OC)cc1,inactive

# Reference: PubChem BioAssay AID624027 (Broad Institute, 2012)
